Test results as given in paper PMC12647645, “Structural interactions of BWC0977 with Klebsiella pneumoniae topoisomerase IV and biochemical basis of its broad-spectrum activity” (Communications Biology, 2025).
Values after ≈ are worked out from the molar mass of the structure shown. Values joined by “and” are separate entries in the source; they are usually repeats but may differ in a detail not shown here. Equal entries are not always repeated. Where two headings read alike, the source gives them in different places.

Legend:
[1] = system: A. baumannii ATCC 19606 resistant mutant colonies (mutant 1-5); test: microbe, parasite or virus in culture; format: cell-based; conditions: Acinetobacter baumannii
E. coli ATCC 25922 = test: MIC broth microdilution; format: cell-based; conditions: Escherichia coli, ATCC25922
E. coli BAA 2469 = test: microbe, parasite or virus in culture; format: cell-based; conditions: Escherichia coli, BAA2469
Human topo IIß = Human topo IIß (Homo sapiens, UniProt Q02880); test: Human topo IIß decatenation assay; format: biochemical
Method: Human topo IIα (0.9 nM) and topo IIß (2.2 nM) decatenation assays were performed following the same protocol used for bacterial topoisomerase IV decatenation assays. The assay buffer was made of 50 mM Tris. HCl (pH 7.5), 125 mM NaCl, 10 mM MgCl2, 5 mM DTT, and 100 μg/mL albumin.

[2] = system: E. coli MG1655 GyrA M120A, ParC M118A; test: microbe, parasite or virus in culture; format: cell-based; conditions: Escherichia coli
E. coli gyrase = target: T1, E. coli gyrase (Escherichia coli, UniProt P0AES4+P0AES6); test: biochemical; format: biochemical; conditions: for Gyrase supercoiling inhibition response: E. coli WT gyrase
T1 construct: purchased Inspiralis

P. aeruginosa ATCC 27853 [3] = conditions: 4× MIC
Method: Spontaneous resistance frequencies to BWC0977 were evaluated in E. coli ATCC 25922, P. aeruginosa ATCC 27853, and A. baumannii ATCC 19606. Mid-logarithmic phase cultures (~10^9 CFU/mL) were plated onto Luria-Bertani agar containing BWC0977 at 4×, 8×, and 16× the respective MICs. Plates were incubated at 37 °C for 24–36 h, and resistance frequencies were estimated by counting colony-forming units (CFUs) on the drug-containing plates. MICs of the isolated colonies were determined, and the gyrA, gyrB, parC, and parE genes were sequenced to assess for target-site mutations.

P. aeruginosa BAA 2794 = test: microbe, parasite or virus in culture; format: cell-based; conditions: Pseudomonas aeruginosa, BAA2794
[4] = system: E. coli MG1655 GyrA WT, ParC R119K; test: microbe, parasite or virus in culture; format: cell-based; conditions: Escherichia coli
K. pneumoniae BAA 2784 = test: microbe, parasite or virus in culture; format: cell-based; conditions: Klebsiella pneumoniae, BAA2784
P. aeruginosa gyrase = P. aeruginosa gyrase (Pseudomonas aeruginosa, UniProt P48372+Q9I7C2); test: biochemical; conditions: for Gyrase supercoiling inhibition response: P. aeruginosa gyrase
K. pneumoniae BAA 2782 = test: microbe, parasite or virus in culture; format: cell-based; conditions: Klebsiella pneumoniae, BAA2782
S. aureus = conditions: ref 6 (Hameed P et al., 2024); cited from earlier work
P. aeruginosa ATCC 27853 [5] = test: MIC broth microdilution; format: cell-based; conditions: Pseudomonas aeruginosa, ATCC27853
[6] = system: E. coli MG1655 GyrA D82N, ParC WT; test: microbe, parasite or virus in culture; format: cell-based; conditions: Escherichia coli
E. coli tolC strain = test: MIC, efflux-deficient strain; format: cell-based
A. baumannii BAA 2885 = test: microbe, parasite or virus in culture; format: cell-based; conditions: Acinetobacter baumannii, BAA2885
[7] = system: E. coli MG1655 (GyrA WT, ParC WT); test: microbe, parasite or virus in culture; format: cell-based; conditions: Escherichia coli
E. faecium = system: E. faecium; parameters: method as in ref 6 (Hameed P et al., 2024); conditions: ref 6 (Hameed P et al., 2024); cited from earlier work
E. coli topoisomerase IV = target: T2, E. coli topoisomerase IV (Escherichia coli, UniProt P0AFI2+P20083); test: biochemical; format: biochemical
T2 construct: purchased Inspiralis

P. aeruginosa ATCC 27853 [8] = conditions: >4× MIC; cited from earlier work
A. baumannii ATCC 19606 = test: MIC broth microdilution; format: cell-based; conditions: Acinetobacter baumannii

Cn1c(=O)ccc2ccc(F)c(CCNC[C@H]3CN(c4cnc5c(n4)NC(=O)CO5)C(=O)O3)c21 [BWC0977]
MIC90 ([1]; ATCC19606, read-out: MIC 90 in (μg/mL), resistant mutant colony 1): 0.6 µg/mL (≈ 1.28 µM) | MIC90 ([1]; ATCC19606, read-out: MIC 90 in (μg/mL), resistant mutant colony 2): 0.07 µg/mL (≈ 0.149 µM) | MIC90 ([1]; ATCC19606, read-out: MIC 90 in (μg/mL), resistant mutant colony 3): 0.07 µg/mL (≈ 0.149 µM) | MIC90 ([1]; ATCC19606, read-out: MIC 90 in (μg/mL), resistant mutant colony 4): 0.07 µg/mL (≈ 0.149 µM) | MIC90 ([1]; ATCC19606, read-out: MIC 90 in (μg/mL), resistant mutant colony 5): 0.3 µg/mL (≈ 0.64 µM) | MIC (E. coli ATCC 25922): 0.06 µg/mL (≈ 0.128 µM) | MIC (E. coli BAA 2469): 0.01 µg/mL (≈ 0.0213 µM) | IC50 (Human topo IIß): > 200000 nM | MIC [2]: 0.0625 µg/mL (≈ 0.133 µM) | IC50 (E. coli gyrase): 4 ± 1 nM | Gyrase supercoiling inhibition response (E. coli gyrase; compound 0.0003 μM, source data Fig 2A/6A, 0.0003 µM): 7.2 and 10.3 and 5.8 | Gyrase supercoiling inhibition response (E. coli gyrase; compound 0.0003 μM, source data Fig 2A/6A, listed as 977, 0.0003 µM): 10.30 and 5.78 | Gyrase supercoiling inhibition response (E. coli gyrase; compound 0.008 μM, source data Fig 2A/6A, 0.008 µM): 69.7 and 73.4 | Gyrase supercoiling inhibition response (E. coli gyrase; compound 0.008 μM, source data Fig 2A/6A, listed as 977, 0.008 µM): 73.65 and 69.70 and 73.41 | Gyrase supercoiling inhibition response (E. coli gyrase; compound 0.074 μM, source data Fig 2A/6A, 0.074 µM): 93.3 and 92.7 | Gyrase supercoiling inhibition response (E. coli gyrase; compound 0.074 μM, source data Fig 2A/6A, listed as 977, 0.074 µM): 89.29 and 93.34 and 92.67 | Gyrase supercoiling inhibition response (E. coli gyrase; compound 0.222 μM, source data Fig 2A/6A, 0.222 µM): 96.5 and 97.7 and 91.5 | Gyrase supercoiling inhibition response (E. coli gyrase; compound 0.222 μM, source data Fig 2A/6A, listed as 977, 0.222 µM): 97.67 and 91.52 | Gyrase supercoiling inhibition response (E. coli gyrase; compound 2 μM, source data Fig 2A/6A, 2 µM): 100.2 and 100.3 and 98.6 | Gyrase supercoiling inhibition response (E. coli gyrase; compound 2 μM, source data Fig 2A/6A, listed as 977, 2 µM): 100.30 and 98.60 | higher inhibition potency compared to compound 17a (E. coli gyrase; E. coli gyrase): ~ 20 fold | inhibition at 0.0003 µM (E. coli gyrase; read-out: Gyrase supercoiling inhibition response, E. coli WT gyrase, compound 0.0003 μM, source data Fig 2A/6A): 7.23% | inhibition at 0.008 µM (E. coli gyrase; read-out: Gyrase supercoiling inhibition response, E. coli WT gyrase, compound 0.008 μM, source data Fig 2A/6A): 73.7% | inhibition at 0.074 µM (E. coli gyrase; read-out: Gyrase supercoiling inhibition response, E. coli WT gyrase, compound 0.074 μM, source data Fig 2A/6A): 89.3% | inhibition at 0.222 µM (E. coli gyrase; read-out: Gyrase supercoiling inhibition response, E. coli WT gyrase, compound 0.222 μM, source data Fig 2A/6A): 96.5% | inhibition at 2 µM (E. coli gyrase; read-out: Gyrase supercoiling inhibition response, E. coli WT gyrase, compound 2 μM, source data Fig 2A/6A): 100% | resistance frequency (P. aeruginosa ATCC 27853 [3]): less than 1 × 10^−9 | MIC (P. aeruginosa BAA 2794): 0.125 µg/mL (≈ 0.267 µM) | MIC [4]: 0.026 µg/mL (≈ 0.0555 µM) | MIC (K. pneumoniae BAA 2784): 0.125 µg/mL (≈ 0.267 µM) | IC50 (P. aeruginosa gyrase): 9.4 nM | Gyrase supercoiling inhibition response (P. aeruginosa gyrase; compound 0.0005 μM, source data Fig 2B, listed as 977, 0.0005 µM): 6.77 | Gyrase supercoiling inhibition response (P. aeruginosa gyrase; compound 0.001 μM, source data Fig 2B, listed as 977, 0.001 µM): 9.59 | Gyrase supercoiling inhibition response (P. aeruginosa gyrase; compound 0.004 μM, source data Fig 2B, listed as 977, 0.004 µM): 27.41 | Gyrase supercoiling inhibition response (P. aeruginosa gyrase; compound 0.012 μM, source data Fig 2B, listed as 977, 0.012 µM): 48.08 | Gyrase supercoiling inhibition response (P. aeruginosa gyrase; compound 0.037 μM, source data Fig 2B, listed as 977, 0.037 µM): 69.93 | Gyrase supercoiling inhibition response (P. aeruginosa gyrase; compound 0.111 μM, source data Fig 2B, listed as 977, 0.111 µM): 87.28 | Gyrase supercoiling inhibition response (P. aeruginosa gyrase; compound 0.333 μM, source data Fig 2B, listed as 977, 0.333 µM): 93.63 | Gyrase supercoiling inhibition response (P. aeruginosa gyrase; compound 1 μM, source data Fig 2B, listed as 977, 1 µM): 99.48 | Gyrase supercoiling inhibition response (P. aeruginosa gyrase; compound 3 μM, source data Fig 2B, listed as 977, 3 µM): 100.23 | inhibition at 0.0005 µM (P. aeruginosa gyrase; read-out: Gyrase supercoiling inhibition response, P. aeruginosa gyrase, compound 0.0005 μM, source data Fig 2B): 12.6% | inhibition at 0.001 µM (P. aeruginosa gyrase; read-out: Gyrase supercoiling inhibition response, P. aeruginosa gyrase, compound 0.001 μM, source data Fig 2B): 16.5% | inhibition at 0.004 µM (P. aeruginosa gyrase; read-out: Gyrase supercoiling inhibition response, P. aeruginosa gyrase, compound 0.004 μM, source data Fig 2B): 32.4% | inhibition at 0.012 µM (P. aeruginosa gyrase; read-out: Gyrase supercoiling inhibition response, P. aeruginosa gyrase, compound 0.012 μM, source data Fig 2B): 61.3% | inhibition at 0.037 µM (P. aeruginosa gyrase; read-out: Gyrase supercoiling inhibition response, P. aeruginosa gyrase, compound 0.037 μM, source data Fig 2B): 85.1% | inhibition at 0.111 µM (P. aeruginosa gyrase; read-out: Gyrase supercoiling inhibition response, P. aeruginosa gyrase, compound 0.111 μM, source data Fig 2B): 97.4% | inhibition at 0.333 µM (P. aeruginosa gyrase; read-out: Gyrase supercoiling inhibition response, P. aeruginosa gyrase, compound 0.333 μM, source data Fig 2B): 99% | inhibition at 1 µM (P. aeruginosa gyrase; read-out: Gyrase supercoiling inhibition response, P. aeruginosa gyrase, compound 1 μM, source data Fig 2B): 99.8% | inhibition at 3 µM (P. aeruginosa gyrase; read-out: Gyrase supercoiling inhibition response, P. aeruginosa gyrase, compound 3 μM, source data Fig 2B): 103% | MIC (K. pneumoniae BAA 2782): 0.125 µg/mL (≈ 0.267 µM) | MIC90 against diverse global isolates (S. aureus): 0.03 µg/mL (≈ 0.064 µM) | MIC (P. aeruginosa ATCC 27853 [5]): 0.125 µg/mL (≈ 0.267 µM) | MIC [6]: 0.08 µg/mL (≈ 0.171 µM) | difference in MICs between tolC strain and wild-type strain (E. coli tolC strain): 10 fold | MIC (E. coli tolC strain; Escherichia coli): 0.001 µg/mL (≈ 0.00213 µM) | MIC (A. baumannii BAA 2885): 0.5 µg/mL (≈ 1.07 µM) | MIC [7]: 0.03 µg/mL (≈ 0.064 µM) | MIC90 against diverse global isolates (E. faecium): 0.12 µg/mL (≈ 0.256 µM) | Topo IV decatenation inhibition response (E. coli topoisomerase IV; E. coli topo IV, compound 0.008 μM, source data Fig 2A, listed as 977, 0.008 µM): 28.08 and 39.25 | inhibition at 0.008 µM (E. coli topoisomerase IV; E. coli topo IV, compound 0.008 μM, source data Fig 2A, read-out: Topo IV decatenation inhibition response): 30.8% | Topo IV decatenation inhibition response (E. coli topoisomerase IV; E. coli topo IV, compound 0.074 μM, source data Fig 2A, listed as 977, 0.074 µM): 89.53 and 79.92 | inhibition at 0.074 µM (E. coli topoisomerase IV; E. coli topo IV, compound 0.074 μM, source data Fig 2A, read-out: Topo IV decatenation inhibition response): 75.6% | Topo IV decatenation inhibition response (E. coli topoisomerase IV; E. coli topo IV, compound 0.222 μM, source data Fig 2A, listed as 977, 0.222 µM): 92.32 and 88.38 | inhibition at 0.222 µM (E. coli topoisomerase IV; E. coli topo IV, compound 0.222 μM, source data Fig 2A, read-out: Topo IV decatenation inhibition response): 83.4% | Topo IV decatenation inhibition response (E. coli topoisomerase IV; E. coli topo IV, compound 2 μM, source data Fig 2A, listed as 977, 2 µM): 94.13 and 90.30 | inhibition at 2 µM (E. coli topoisomerase IV; E. coli topo IV, compound 2 μM, source data Fig 2A, read-out: Topo IV decatenation inhibition response): 84.8% | higher inhibition potency compared to compound 17a (E. coli topoisomerase IV; E. coli topoisomerase IV): ~ 20 fold | IC50 (E. coli topoisomerase IV; read-out: IC50 E. coli topo IV decatenation): 13 ± 4 nM | resistant colonies on exposure (P. aeruginosa ATCC 27853 [8]): no resistant colonies | MIC (A. baumannii ATCC 19606; ATCC19606): 0.125 µg/mL (≈ 0.267 µM) | MIC90 (A. baumannii ATCC 19606; ATCC19606, read-out: MIC 90 in (μg/mL), A. baumannii ATCC 19606 (WT)): 0.15 µg/mL (≈ 0.32 µM)
